ChEMBL document CHEMBL5661943, “ASAP - In vitro antiviral effect” (2024)

Assays:
[1] = system: dengue virus type 2; assay: Functional assay to measure dose dependent changes in antiviral-drug inhibitory efficacy against Dengue virus type 2 New Guinea C in Vero E6 miRFP670 cells (cotreated with P-gp inhibitor, CP100356). Cells are treated with antiviral candidates that are serially diluted, following infection, cells are fixed. EC50 is reported via analysis of fluorescence intensity using high-content imager. The …; assay type: organism-based, Chlorocebus sabaeus, Vero C1008; details: Dengue virus
[2] = system: Zika virus; assay: Functional CPE-based assay to measure dose dependent changes in antiviral-drug inhibitory efficacy against Zika virus MR766 in Vero E6 miRFP670 cells (cotreated with P-gp inhibitor, CP100356). Cells are treated with antiviral candidates that are serially diluted. EC50 is reported via analysis of MTS assay as a readout of CPE. The assay has been performed by KU Leuven.; assay type: organism-based, Chlorocebus sabaeus, Vero C1008; details: Zika virus

## O=C(Nc1cc2c(cc1C1CC1)CNC2)c1cc(F)cc2[nH]ncc12
[1]; Vero C1008
  EC50: > 3.12 µM
[1]; Vero C1008, Maximum measured 158.599 %, Minimum measured 73.357 %, P-gp concentration 500 nM, P-gp inhibitor CP100356
  EC90: > 3.12 µM
[2]; Vero C1008
  EC50: 7.12 µM
[2]; Vero C1008, Baseline response 0 %, EC90 CI (lower) 6.176 uM, EC90 CI (upper) 30.178 uM, Hill slope 3.376, Maximum measured 139.956 %, Maximum response 100 %, Minimum measured 0.398 %, P-gp concentration 500 nM, R squared 0.839, P-gp inhibitor CP100356
  EC90: 13.7 µM

## COc1ccccc1-c1nc2c(C(=O)Nc3ccc4c(c3)CNC4)cc(F)cc2[nH]1
[1]; Vero C1008
  EC50: > 12.5 µM
[1]; Vero C1008, Baseline response 0 %, Hill slope -1.284, Maximum measured 263.72 %, Maximum response 267.598 %, Minimum measured 165.032 %, P-gp concentration 500 nM, R squared 0.972, P-gp inhibitor CP100356
  EC90: > 12.5 µM
[2]; Vero C1008
  EC50: > 50 µM
[2]; Vero C1008, Baseline response 0 %, Hill slope 1.211, Maximum measured 45.367 %, Maximum response 100 %, Minimum measured -3.491 %, P-gp concentration 500 nM, R squared 0.953, P-gp inhibitor CP100356
  EC90: > 50 µM

## O=C(O)Cn1ncc2cc(-c3cc(Cl)cc(NC(=O)OCc4ccccc4)c3)ccc21
[1]; Vero C1008
  EC50: > 50 µM
[1]; Vero C1008, Maximum measured 125.945 %, Minimum measured 96.066 %, P-gp concentration 500 nM, P-gp inhibitor CP100356
  EC90: > 50 µM

## NCc1cccc(-c2csc3cc(C(=O)Nc4ccc5c(c4)CNC5)ccc23)c1
[2]; Vero C1008
  EC50: 2.4 µM
[2]; Vero C1008, Baseline response 0 %, Hill slope 1.279, Maximum measured 60.824 %, Maximum response 100 %, Minimum measured 10.172 %, P-gp concentration 500 nM, R squared 0.942, P-gp inhibitor CP100356
  EC90: > 3.12 µM

## O=C(Nc1cc(Cl)cc(C(=O)Nc2ccc3c(c2)CCNC3)c1)OCc1ccccc1
[1]; Vero C1008
  EC50: > 1.56 µM
[1]; Vero C1008, Maximum measured 159.578 %, Minimum measured 136.105 %, P-gp concentration 500 nM, P-gp inhibitor CP100356
  EC90: > 1.56 µM

## C=C1C[C@H](c2cc(Cl)cc(NC(=O)OCc3ccccc3)c2)[C@@H](c2cccc(-c3nn[nH]n3)c2)C1
[1]; Vero C1008
  EC50: > 6.25 µM
[1]; Vero C1008, Maximum measured 124.641 %, Minimum measured 90.066 %, P-gp concentration 500 nM, P-gp inhibitor CP100356
  EC90: > 6.25 µM

## O=C(Nc1cc(Cl)cc(CNc2cccc(-c3nn[nH]n3)c2)c1)OCc1ccccc1
[1]; Vero C1008
  EC50: > 25 µM
[1]; Vero C1008, Maximum measured 175.327 %, Minimum measured 92.337 %, P-gp concentration 500 nM, P-gp inhibitor CP100356
  EC90: > 25 µM

## NCc1ccc2c(c1)[C@H]1OCCC[C@H]1[C@H](c1cc(Cl)cc(NC(=O)OCc3ccccc3)c1)N2
[1]; Vero C1008
  EC50: 1.9 µM
[1]; Vero C1008, Baseline response 0 %, EC90 CI (lower) 1.087 uM, EC90 CI (upper) 1.673 uM, Hill slope -6.376, Maximum measured 104.423 %, Maximum response 100 %, Minimum measured 0.619 %, P-gp concentration 500 nM, R squared 0.968, P-gp inhibitor CP100356
  EC90: 2.69 µM

## NCc1ccc([C@H]2C[C@@H]2c2cc(Cl)cc(NC(=O)OCc3ccccc3)c2)cc1
[1]; Vero C1008
  EC50: 2.72 µM
[1]; Vero C1008, Baseline response 0 %, Hill slope -3.689, Maximum measured 118.529 %, Maximum response 100 %, Minimum measured 38.173 %, P-gp concentration 500 nM, R squared 0.774, P-gp inhibitor CP100356
  EC90: > 3.12 µM

## CNC(=O)[C@H](Nc1cc(Cl)cc(NC(=O)OCc2ccccc2)c1)c1cccc(CN)c1
[1]; Vero C1008
  EC50: 7.19 µM
[1]; Vero C1008, Baseline response 0 %, EC90 CI (lower) 3.139 uM, EC90 CI (upper) 9.78 uM, Hill slope -8.413, Maximum measured 116.634 %, Maximum response 100 %, Minimum measured 2.553 %, P-gp concentration 500 nM, R squared 0.885, P-gp inhibitor CP100356
  EC90: 9.34 µM

## O=C(Nc1ccc2c(c1)CNC2)c1cc(Cl)cc2[nH]c(-c3ccccc3)nc12
[2]; Vero C1008
  EC50: > 50 µM
[2]; Vero C1008, Baseline response 0 %, Hill slope 1.72, Maximum measured 10.819 %, Maximum response 100 %, Minimum measured -5.769 %, P-gp concentration 500 nM, R squared 0.199, P-gp inhibitor CP100356
  EC90: > 50 µM

## COc1ccc(S(=O)(=O)Nc2cc(F)c(Cl)cc2C(=O)NCC(C)C)cc1
[1]; Vero C1008
  EC50: 5.86 µM
  EC90: 6.67 µM

## O=C(Nc1cc(Cl)cc([C@H]2C[C@@H]2c2cccc(-c3nnn[nH]3)c2)c1)OCc1ccccc1
[1]; Vero C1008
  EC50: > 25 µM
[1]; Vero C1008, Maximum measured 174.938 %, Minimum measured 87.593 %, P-gp concentration 500 nM, P-gp inhibitor CP100356
  EC90: > 25 µM

## CC(=Cc1cc(Cl)cc(NC(=O)OCc2ccccc2)c1)c1cccc(CN)c1
[1]; Vero C1008
  EC50: > 1.56 µM
[1]; Vero C1008, Maximum measured 159.566 %, Minimum measured 81.442 %, P-gp concentration 500 nM, P-gp inhibitor CP100356
  EC90: > 1.56 µM

## CC(=Cc1cccc(CN)c1)c1cc(Cl)cc(NC(=O)OCc2ccccc2)c1
[1]; Vero C1008
  EC50: > 6.25 µM
[1]; Vero C1008, Maximum measured 157.677 %, Minimum measured 102.187 %, P-gp concentration 500 nM, P-gp inhibitor CP100356
  EC90: > 6.25 µM

## N[C@H]1CC[C@H](c2ccc(NC(=O)c3cc(Cl)cc(NC(=O)OCc4ccccc4)c3)cc2)C1
[1]; Vero C1008
  EC50: 1.49 µM
[1]; Vero C1008, Baseline response 0 %, Hill slope -16.959, Maximum measured 155.273 %, Maximum response 100 %, Minimum measured 29.767 %, P-gp concentration 500 nM, R squared 0.495, P-gp inhibitor CP100356
  EC90: > 1.56 µM

## N#C[C@H](Nc1cc(Cl)cc(NC(=O)OCc2ccccc2)c1)c1ccc(-c2nn[nH]n2)cc1
[1]; Vero C1008
  EC50: > 50 µM
[1]; Vero C1008, Baseline response 0 %, Hill slope -0.236, Maximum measured 132.412 %, Maximum response 100 %, Minimum measured 19.2 %, P-gp concentration 500 nM, R squared 0.02, P-gp inhibitor CP100356
  EC90: > 50 µM

## CNC(=O)[C@H](Nc1cccc(CN)c1)c1cc(Cl)cc(NC(=O)OCc2ccccc2)c1
[1]; Vero C1008
  EC50: 7.81 µM
[1]; Vero C1008, Baseline response 0 %, EC90 CI (lower) 4.909 uM, EC90 CI (upper) 7.205 uM, Hill slope -8.054, Maximum measured 105.221 %, Maximum response 100 %, Minimum measured 2.373 %, P-gp concentration 500 nM, R squared 0.934, P-gp inhibitor CP100356
  EC90: 10.3 µM

## C=CC[C@H](Nc1cc(Cl)cc(NC(=O)OCc2ccccc2)c1)c1cccc(CN)c1
[1]; Vero C1008
  EC50: 0.546 µM
[1]; Vero C1008, Baseline response 0 %, EC90 CI (lower) 0.029 uM, EC90 CI (upper) 0.719 uM, Hill slope -1.654, Maximum measured 56.301 %, Maximum response 100 %, Minimum measured 0.945 %, P-gp concentration 500 nM, R squared 0.693, P-gp inhibitor CP100356
  EC90: 2.06 µM

## Clc1cccc([C@H](C#Cc2ccccc2)Nc2cccc(-c3nn[nH]n3)c2)c1
[1]; Vero C1008
  EC50: > 6.25 µM
[1]; Vero C1008, Maximum measured 160.53 %, Minimum measured 108.244 %, P-gp concentration 500 nM, P-gp inhibitor CP100356
  EC90: > 6.25 µM

## O=C(Nc1ccc2c(c1)CNC2)c1cc(Cl)cc(N2CCCC2)c1
[2]; Vero C1008
  EC50: > 50 µM
[2]; Vero C1008, Maximum measured 3.676 %, Minimum measured -16.143 %, P-gp concentration 500 nM, P-gp inhibitor CP100356
  EC90: > 50 µM

## O=C(Nc1cc(Cl)cc([C@H](C#CCO)Nc2ccc(-c3nn[nH]n3)cc2)c1)OCc1ccccc1
[1]; Vero C1008
  EC50: > 50 µM
[1]; Vero C1008, Maximum measured 120.318 %, Minimum measured 85.942 %, P-gp concentration 500 nM, P-gp inhibitor CP100356
  EC90: > 50 µM

## O=C(Nc1ccc2c(c1)CNC2)c1cc(Cl)cc2[nH]c(-c3cccc(F)c3)nc12
[2]; Vero C1008
  EC50: > 50 µM
[2]; Vero C1008, Baseline response 0 %, Hill slope 0.814, Maximum measured 40.434 %, Maximum response 100 %, Minimum measured 0.118 %, P-gp concentration 500 nM, R squared 0.904, P-gp inhibitor CP100356
  EC90: > 50 µM

## CC1(C)NCc2cc(NC(=O)c3cc(F)cc4[nH]ncc34)ccc21
[2]; Vero C1008
  EC50: > 50 µM
[2]; Vero C1008, Maximum measured -0.426 %, Minimum measured -7.479 %, P-gp concentration 500 nM, P-gp inhibitor CP100356
  EC90: > 50 µM

## C=CC[C@H]1NCc2cc(NC(=O)c3cc(Cl)cc4[nH]ncc34)ccc21
[2]; Vero C1008
  EC50: > 50 µM
[2]; Vero C1008, Baseline response 0 %, Hill slope 0.168, Maximum measured 60.303 %, Maximum response 100 %, Minimum measured -6.598 %, P-gp concentration 500 nM, R squared 0.022, P-gp inhibitor CP100356
  EC90: > 50 µM

## C[C@@]1(O)[C@H](O)[C@@H](CO)O[C@H]1n1ccc(N)nc1=O
[1]; Vero C1008
  EC50: 116 µM
[1]; Vero C1008, Baseline response 0 %, Hill slope -2.692, Maximum measured 107.888 %, Maximum response 100 %, Minimum measured 21.977 %, P-gp concentration 500 nM, R squared 0.958, P-gp inhibitor CP100356
  EC90: > 200 µM

## CN(C)C(=O)c1cc(CN)cc([C@@H]2C[C@H]2c2cc(Cl)cc(NC(=O)OCc3ccccc3)c2)c1
[1]; Vero C1008
  EC50: 2 µM
[1]; Vero C1008, Baseline response 0 %, Hill slope -4.597, Maximum measured 117.075 %, Maximum response 100 %, Minimum measured 13.909 %, P-gp concentration 500 nM, R squared 0.926, P-gp inhibitor CP100356
  EC90: > 3.12 µM

## C=CC[C@H](Nc1cccc(-c2nn[nH]n2)c1)c1cc(Cl)cc(NC(=O)OCc2ccccc2)c1
[1]; Vero C1008
  EC50: < 0.391 µM
[1]; Vero C1008, Baseline response 0 %, EC90 CI (lower) 0.009 uM, EC90 CI (upper) 0.062 uM, Hill slope -1.268, Maximum measured 19.733 %, Maximum response 100 %, Minimum measured 0.468 %, P-gp concentration 500 nM, R squared 0.944, P-gp inhibitor CP100356
  EC90: 0.74 µM

## N[C@H]1Cc2ccc(NC(=O)c3cc(Cl)cc(NC(=O)OCc4ccccc4)c3)cc2C1
[1]; Vero C1008
  EC50: 1.64 µM
[1]; Vero C1008, Baseline response 0 %, EC90 CI (lower) 0.187 uM, EC90 CI (upper) 8.327 uM, Hill slope -7.929, Maximum measured 105.944 %, Maximum response 100 %, Minimum measured 3.386 %, P-gp concentration 500 nM, R squared 0.874, P-gp inhibitor CP100356
  EC90: 2.17 µM

## C[C@H]1NCc2cc(NC(=O)c3cc(F)cc4[nH]ncc34)ccc21
[2]; Vero C1008
  EC50: > 50 µM
[2]; Vero C1008, Baseline response 0 %, Hill slope 1.233, Maximum measured 13.741 %, Maximum response 100 %, Minimum measured -1.755 %, P-gp concentration 500 nM, R squared 0.661, P-gp inhibitor CP100356
  EC90: > 50 µM

## O=C(Nc1cc(Cl)cc(C(=O)Nc2ccc([C@@H]3C[C@H]3C(=O)O)cc2)c1)OCc1ccccc1
[1]; Vero C1008
  EC50: > 50 µM
[1]; Vero C1008, Maximum measured 124.209 %, Minimum measured 92.524 %, P-gp concentration 500 nM, P-gp inhibitor CP100356
  EC90: > 50 µM

## O=C(Nc1ccc2c(c1)CN[C@H]2C1CC1)c1cc(F)cc2[nH]ncc12
[2]; Vero C1008
  EC50: 6.28 µM
  EC90: 7.09 µM
